Legend:
ACE = target: T1, ACE (Rattus norvegicus, UniProt P47820); experiment: ACE inhibition activity (Experiment D-1); format: biochemical; conditions: rat lung membrane fraction, pH 8.3
T1 construct: membrane fraction prepared from rat lung; from tissue; host or cells: rat lung, membrane fraction (method of Wu-Wong et al.)
T1 sequence (P47820 36-1313): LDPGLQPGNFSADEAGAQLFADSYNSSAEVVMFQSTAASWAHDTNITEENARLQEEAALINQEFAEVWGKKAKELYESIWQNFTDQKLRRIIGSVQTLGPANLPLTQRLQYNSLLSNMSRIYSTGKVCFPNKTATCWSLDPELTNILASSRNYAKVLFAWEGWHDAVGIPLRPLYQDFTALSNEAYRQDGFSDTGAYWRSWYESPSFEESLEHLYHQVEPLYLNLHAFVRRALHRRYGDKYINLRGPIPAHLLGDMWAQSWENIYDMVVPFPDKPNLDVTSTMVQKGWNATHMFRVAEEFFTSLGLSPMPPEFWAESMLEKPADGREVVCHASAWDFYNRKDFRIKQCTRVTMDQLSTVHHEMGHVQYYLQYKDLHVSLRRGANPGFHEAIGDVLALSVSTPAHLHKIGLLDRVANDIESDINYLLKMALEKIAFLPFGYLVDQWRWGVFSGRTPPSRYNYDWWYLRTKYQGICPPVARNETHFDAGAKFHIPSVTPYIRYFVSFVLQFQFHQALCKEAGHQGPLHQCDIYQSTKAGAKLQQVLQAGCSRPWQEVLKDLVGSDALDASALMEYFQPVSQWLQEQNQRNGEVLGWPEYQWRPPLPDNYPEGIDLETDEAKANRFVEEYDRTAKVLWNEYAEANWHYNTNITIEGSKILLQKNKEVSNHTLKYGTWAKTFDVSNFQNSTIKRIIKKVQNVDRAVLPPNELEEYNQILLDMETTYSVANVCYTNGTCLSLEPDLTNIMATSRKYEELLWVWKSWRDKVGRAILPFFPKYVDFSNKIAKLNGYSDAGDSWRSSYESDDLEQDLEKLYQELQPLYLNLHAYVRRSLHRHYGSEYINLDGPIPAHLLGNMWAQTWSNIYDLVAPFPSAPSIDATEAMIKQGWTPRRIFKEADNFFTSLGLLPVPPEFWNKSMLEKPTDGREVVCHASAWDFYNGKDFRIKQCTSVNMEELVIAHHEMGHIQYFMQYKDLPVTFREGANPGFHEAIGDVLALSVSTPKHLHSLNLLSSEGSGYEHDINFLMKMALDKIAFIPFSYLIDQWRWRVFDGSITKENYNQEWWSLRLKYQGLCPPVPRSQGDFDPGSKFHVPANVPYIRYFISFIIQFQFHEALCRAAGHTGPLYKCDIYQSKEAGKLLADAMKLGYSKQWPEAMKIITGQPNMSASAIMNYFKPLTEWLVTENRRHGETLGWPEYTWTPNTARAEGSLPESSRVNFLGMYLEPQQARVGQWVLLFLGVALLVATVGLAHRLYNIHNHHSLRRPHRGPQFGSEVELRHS
Method: As a source of the enzyme ACE, a membrane fraction prepared from rat lung in accordance with the method of Wu-Wong et al. (Characterization of Endthelin Converting Enzyme in Rat Lung., Junshyum R. Wu-Wong, Gerald, P. Budzik, Edward M. Devine and Terry J. Opgenorth, Biochem. Biophys. Res. Commun., 1990, 171, 1291-1296.) was used. The ACE activity was determined with the use of a modification (modified to a borate buffer, pH 8.3) of the method of Cushman and Cheung (Spectrophotometric Assay and Properties of the Angiotensin-Converting Enzyme of Rabbit Lung., Cushman D. W. and Cheung H. S., 1971, 20, 1637-1648.). Now the procedure will be briefly described.
In the presence of ACE, the hippurate liberated from hippuryl-histidine-leucine (Hippuryl-His-Leu (Peptide Institute Inc., Japan)) was extracted with ethyl acetate and then the absorbance was measured at a wavelength of 228 nm.
(§1) To determine the NEP inhibition activity and the ACE inhibition activity, the inhibitor was added to the assay systems of both enzyme activities as described above in such a manner as to give the final concentrations of 1, 3, 10, 30, 100, 300 and 1000 nM and inhibition curves were prepared. Then the concentration at which 50% inhibition was achieved was taken as IC50.

NEP = target: T2, NEP (Rattus norvegicus, UniProt P07861); experiment: NEP inhibition activity (Experiment D-1); format: biochemical; set-up: membrane fraction prepared from rat renal cortex; from tissue; host or cells: rat renal cortex, membrane fraction (method of Booth and Kenny); conditions: rat renal cortex membrane fraction
T2 sequence (P07861 1-750): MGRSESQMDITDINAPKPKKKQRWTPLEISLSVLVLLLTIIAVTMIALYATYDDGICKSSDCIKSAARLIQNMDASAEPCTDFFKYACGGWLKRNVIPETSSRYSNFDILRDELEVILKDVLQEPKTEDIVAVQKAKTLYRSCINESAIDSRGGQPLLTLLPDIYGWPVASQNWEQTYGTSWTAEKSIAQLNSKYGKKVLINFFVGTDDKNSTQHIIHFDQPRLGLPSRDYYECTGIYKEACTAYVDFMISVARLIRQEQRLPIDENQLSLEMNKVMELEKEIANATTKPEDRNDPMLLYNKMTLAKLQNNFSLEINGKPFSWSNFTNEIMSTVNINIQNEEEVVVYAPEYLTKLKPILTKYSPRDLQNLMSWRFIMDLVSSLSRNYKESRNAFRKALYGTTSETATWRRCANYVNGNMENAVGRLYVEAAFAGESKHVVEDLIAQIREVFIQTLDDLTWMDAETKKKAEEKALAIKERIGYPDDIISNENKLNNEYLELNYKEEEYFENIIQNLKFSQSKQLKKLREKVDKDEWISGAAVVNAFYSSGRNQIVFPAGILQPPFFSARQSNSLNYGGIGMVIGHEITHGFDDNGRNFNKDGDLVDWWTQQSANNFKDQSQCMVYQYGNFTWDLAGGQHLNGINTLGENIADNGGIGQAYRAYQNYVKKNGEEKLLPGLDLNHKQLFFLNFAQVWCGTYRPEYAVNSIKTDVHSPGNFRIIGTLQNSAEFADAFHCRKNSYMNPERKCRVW
Method: As a source of the enzyme NEP, a membrane fraction prepared from rat renal cortex in accordance with the method of Booth and Kenny (A Rapid Method for the Purification of Microvilli from Rabbit Kidney., Andrew G. Booth and A. John Kenny, Biochem. j., 1974, 142, 575-581.) was employed. The NEP activity was determined in accordance with the method of Orlowsky and Wilk (Purification and Specificity of a Membrane-Bound Metalloendpeptidase from Bovine Pituitaries., Marian Orlowsky and Shrwin Wilk, Biochemistry, 1981, 20, 4942-4950.). Now the procedure will be briefly described.
As a substrate, benzoyl-glycine-arginine-arginine-2-naphthylamide benzoyl-Gly-Arg-Arg-2-naphthylamide (Nova Biochem, Switzerland)) was used. In the presence of an NEP enzyme preparation and excessive leucine aminopeptidase (sigma chemical Co., U.S.A.), the liberated naphthylamine was made to undergo color development with first garnet (Sigma chemical Co., U.S.A.), followed by the measurement of the absorbance at a wavelength of 540 nm.
as §1

SHR [1] = experiment: Hypotensive effect on SHR, i.v. (Experiment D-2); format: in vivo, Spontaneously hypertensive rats
Method: (§2) Spontaneously hypertensive rats (SHR) aged 15 to 20 weeks were anesthetized by intraperitoneally administering thiopental sodium (50 mg/kg). The depth of anesthesia was maintained by optionally effecting supplemental anesthesia (5 mg/kg, i.v.). Catheters were inserted into the left common carotid artery and the vein respectively for the measurement of blood pressure and for the administration of a medicament. The cardiac rate was counted by using blood pressure as a trigger.
When the blood pressure became stable after the completion of the operation, the comparative compound or the compound of Example 9 was intravenously administered in doses of 0.1, 0.3 and 1.0 mg/kg and changes in blood pressure and cardiac rate were measured. Following the administration, the measurement was effected for 10 minutes in the cases of 0.1 and 0.3 mg/kg or for 30 minutes in the case of 1.0 mg/kg.

SHR [2] = experiment: Hypotensive effect on SHR, i.v. (Experiment C-5); format: in vivo, rat (SHR)
Method: as §2, with “SHRs” for “Spontaneously hypertensive rats (SHR)”
When the blood pressure became stable after the completion of the operation, the comparative compound was intravenously administered in 0.1, 0.3 and 1.0 mg/kg and changes in blood pressure and cardiac rate were measured. Following the administration, the measurement was effected for 10 minutes in the cases of 0.1 and 0.3 mg/kg or for 30 minutes in the case of 1.0 mg/kg. The invention compound was intravenously administered in 0.03, 0.1 and 0.3 mg/kg and the measurement was effected for 10 minutes after the administration in the cases of 0.03 and 0.1 mg/kg or for 30 minutes after the administration in the case of 0.3 mg/kg.

SHR [3] = experiment: Hypotensive effect on SHR through intravenous administration (separate experiment); format: in vivo; conditions: Rattus norvegicus, read-out: dose to decrease the blood pressure by 10%
Excerpt: In addition to the above-mentioned Pharmacological Experiment Examples, an experiment was separately effected with the use of SHR for examining hypotensive effects through intravenous administration. As the result, in the comparison of the conventionally known double inhibitors (1) [S-(R*,R*)]-2,3,4,5-tetrahydro-3-[(2-mercapto-[…])amino]-2-oxo-1H-benzazepine-1-acetic acid and (2) [S-(R*,R*)]-2,3,4,5-tetrahydro-3-[(2-mercapto-1-oxo-4-methylpentyl)amino]- 2-oxo-1H-benzazepine-1-acetic acid with the compounds of the present invention, Example C-8 and Example C-10, the inhibitors (1) and (2) should be administered each in a dose of 1.0 mg/kg to decrease the blood pressure by 10%, whereas the administration of 0.03 to 0.1 mg/kg of the compound of Example C-8 and the administration of 0.1 to 0.3 mg/kg of the compound of Example C-10 each achieved the same effect.

[4] = within 30 minutes after i.v. administration

| Compound | IC50 (ACE) | IC50 (NEP) | cardiac rate (SHR [1]; SHR, i.v.) | ED (10% decrease in blood pressure) (SHR [3]) | further results |
| --- | --- | --- | --- | --- | --- |
| O=C(N[C@H]1Cc2ccccc2[C@H]2CCC[C@@H](C(=O)O)N2C1=O)[C@@H](S)Cc1ccccc1 [comparative compound, reference compound] |  |  | tended to gradually decrease |  | cardiac rate (SHR [2]; SHR, i.v.): tended to gradually decrease; return of blood pressure (SHR [2]; [4]): did not return within 30 minutes; return of blood pressure (SHR [1]; [4]): did not return within 30 minutes |
| O=C(O)CN1C(=O)[C@@H](NC(=O)[C@@H](S)Cc2ccccc2)CCc2ccccc21 [inhibitor (1)] |  |  |  | 1 mg/kg |  |
| CC(C)C[C@H](S)C(=O)N[C@H]1CCc2ccccc2N(CC(=O)O)C1=O [inhibitor (2), [S-(R*,R*)]-2,3,4,5-tetrahydro-3-[(2-mercapto-1-oxo-4-methylpentyl)amino]-2-oxo-1H-benzazepine-1-acetic acid] |  |  |  | 1 mg/kg |  |

More lines, main results first:

| IC50 (ACE) | IC50 (NEP) | Compound | cardiac rate (SHR [1]; SHR, i.v.) | ED (10% decrease in blood pressure) (SHR [3]) | further results |
| --- | --- | --- | --- | --- | --- |
| 0.011 µM | 0.014 µM | COc1ccc(CC(S)C(=O)N[C@H]2Cc3ccccc3[C@H]3SC[C@H](C(=O)O)N3C2=O)cc1 (stereo partly drawn) [Comp. cpd.*^1] |  |  |  |
| 0.017 µM | 0.033 µM | CS(=O)(=O)Nc1ccc2c(c1)[C@H]1CCC[C@@H](C(=O)O)N1C(=O)[C@@H](NC(=O)[C@@H](S)Cc1ccccc1)C2 [Example D-5, [4S-[4α,7α(R*),12bβ]]-11-methylsulfonylamino7-[[(S)-2-mercapto-3-phenyl-1-oxopropyl)amino-6-oxo-1,2,3,4,6,7,8,12b-octahydropyrido-[2,1-a][2]benzazepine-4-carboxylic acid] |  |  |  |
| 0.012 µM | 0.038 µM | COc1ccc(C[C@H](S)C(=O)N[C@H]2Cc3ccc(NS(C)(=O)=O)cc3[C@H]3CCC[C@@H](C(=O)O)N3C2=O)cc1 [Example D-6, [4S-[4α,7α(R*),12bβ]]-11-methylsulfonylamino-7-[[(S)-2-mercapto-3-(4-methoxyphenyl)-1-oxopropyl]amino-6-oxo-1,2,3,4,6,7,8,12b-octahydropyrido-[2,1-a][2]benzazepine-4-carboxylic acid] | tended to gradually decrease |  | decrease in blood pressure / hypotensive effect (SHR [1]; 1.0 mg/kg i.v.): 25%; hypotensive effect on SHR relative to the comparative compound (SHR [1]; SHR, i.v.): about three times that of the comparative compound |
